# Assay results published in ChEMBL document CHEMBL5252655, “Discovery of Potent Deuterated Compounds as Potential KRASG12D Inhibitors in Cancer Therapy” (ACS Med Chem Lett, 2023).
# Target: SOS1-KRAS (Homo sapiens, UniProt P01116, G12D)
# Assay: Inhibition of SOS1/KRAS G12D mutant (unknown origin) protein-protein interaction incubated for 3 hrs by HTRF analysis
# Chain of SOS1-KRAS (P01116 whole entry G12D, looked up): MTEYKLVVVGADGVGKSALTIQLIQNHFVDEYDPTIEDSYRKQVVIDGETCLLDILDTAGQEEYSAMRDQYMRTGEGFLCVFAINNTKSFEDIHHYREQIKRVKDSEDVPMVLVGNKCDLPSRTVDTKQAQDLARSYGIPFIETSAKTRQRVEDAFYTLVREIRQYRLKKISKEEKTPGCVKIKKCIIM
row,IC50 [nM],SMILES
1,> 250,[2H]C([2H])(Oc1nc2c(c(N3CC4CCC(C3)N4)n1)CCN(c1cc(O)ccc1C(F)(F)F)C2)C12CCCN1CCC2
2,> 50,[2H]C([2H])(Oc1nc2c(c(N3CC4CCC(C3)N4)n1)CCN(c1cc(O)cc(Cl)c1C(F)(F)F)C2)C12CCCN1CCC2
3,≤ 50,[2H]C([2H])(Oc1nc(N2CC3CCC(C2)N3)c2cnc(-c3cc(O)cc(Cl)c3C(F)(F)F)c(F)c2n1)C12CCCN1CCC2
4,≤ 50,[2H]C([2H])(Oc1nc(N2CC3CCC2CN3)c2cnc(-c3cc(O)cc(Cl)c3C(F)(F)F)c(F)c2n1)C12CCCN1CCC2 (centres undefined)
